According to publication PMC4961458 (eLife, 2016):

Tests used:
[1] = target: T1, PR-B (Homo sapiens, UniProt P06401); assay: PR-B transcriptional reporter assay, antagonist mode (HEPG2 cells); format: cell-based; settings: 1 nM R5020
T1 construct: cloning full-length human PRb into pCDNA; expressed in transfected cells; host or cells: HEPG2
T1 sequence (P06401 1-933): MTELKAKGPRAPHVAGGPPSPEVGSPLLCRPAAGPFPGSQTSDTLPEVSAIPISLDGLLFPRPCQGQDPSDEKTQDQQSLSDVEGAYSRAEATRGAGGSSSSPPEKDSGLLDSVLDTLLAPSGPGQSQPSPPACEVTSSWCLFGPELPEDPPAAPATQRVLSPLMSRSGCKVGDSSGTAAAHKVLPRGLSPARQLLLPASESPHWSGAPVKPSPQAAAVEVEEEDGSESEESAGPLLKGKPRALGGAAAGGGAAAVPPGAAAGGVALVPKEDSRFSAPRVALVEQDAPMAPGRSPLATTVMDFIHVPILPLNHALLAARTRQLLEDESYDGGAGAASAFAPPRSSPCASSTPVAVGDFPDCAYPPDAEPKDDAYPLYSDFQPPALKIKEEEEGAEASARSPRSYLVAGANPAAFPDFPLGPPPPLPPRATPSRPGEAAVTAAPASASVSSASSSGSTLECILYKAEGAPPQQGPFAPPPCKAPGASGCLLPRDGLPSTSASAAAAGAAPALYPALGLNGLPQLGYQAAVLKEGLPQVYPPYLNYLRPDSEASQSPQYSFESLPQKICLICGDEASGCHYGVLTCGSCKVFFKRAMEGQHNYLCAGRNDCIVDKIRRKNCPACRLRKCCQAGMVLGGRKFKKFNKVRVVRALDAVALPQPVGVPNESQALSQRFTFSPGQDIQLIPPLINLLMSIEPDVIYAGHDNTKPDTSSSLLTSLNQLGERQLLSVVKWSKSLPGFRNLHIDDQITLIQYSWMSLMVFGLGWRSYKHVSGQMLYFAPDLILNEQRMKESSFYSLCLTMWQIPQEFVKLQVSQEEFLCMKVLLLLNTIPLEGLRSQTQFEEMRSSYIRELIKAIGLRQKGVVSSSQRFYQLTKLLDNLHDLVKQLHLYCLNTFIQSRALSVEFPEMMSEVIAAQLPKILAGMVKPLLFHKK

[2] = target: T2, PR-A (Homo sapiens, UniProt P06401); assay: PR-A transcriptional reporter assay, antagonist mode (HEPG2 cells)
T2 sequence (P06401 1-769 isoform P06401-2): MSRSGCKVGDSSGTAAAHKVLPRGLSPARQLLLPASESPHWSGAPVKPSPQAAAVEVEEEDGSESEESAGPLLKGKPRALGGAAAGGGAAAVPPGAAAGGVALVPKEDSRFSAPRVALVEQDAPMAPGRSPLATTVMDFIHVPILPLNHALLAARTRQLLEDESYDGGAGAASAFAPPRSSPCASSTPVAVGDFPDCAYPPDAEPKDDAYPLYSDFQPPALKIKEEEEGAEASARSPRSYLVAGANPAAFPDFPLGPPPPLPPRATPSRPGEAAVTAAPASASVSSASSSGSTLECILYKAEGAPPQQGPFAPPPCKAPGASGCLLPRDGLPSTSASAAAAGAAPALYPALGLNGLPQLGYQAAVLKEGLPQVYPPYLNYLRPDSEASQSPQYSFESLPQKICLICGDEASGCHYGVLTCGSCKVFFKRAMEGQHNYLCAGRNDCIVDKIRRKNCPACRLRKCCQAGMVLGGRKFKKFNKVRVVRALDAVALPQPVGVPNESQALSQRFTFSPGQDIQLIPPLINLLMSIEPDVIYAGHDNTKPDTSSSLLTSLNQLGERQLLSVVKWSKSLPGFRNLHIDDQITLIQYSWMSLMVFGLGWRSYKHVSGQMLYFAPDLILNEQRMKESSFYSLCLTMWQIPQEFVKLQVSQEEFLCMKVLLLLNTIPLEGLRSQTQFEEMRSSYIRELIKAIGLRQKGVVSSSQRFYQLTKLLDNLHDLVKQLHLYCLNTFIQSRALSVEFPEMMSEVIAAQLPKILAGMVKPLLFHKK

[3] = system: ER; set-up: method as in van Kruchten et al., 2015; settings: 500 mg dose, 6/16 patients; ref van Kruchten et al., 2015; cited from earlier work
[4] = GDC-0810 mouse pharmacokinetics

CC/C(=C(\c1ccc(O)cc1)c1ccc(OCCN(C)C)cc1)c1ccccc1 [4-OH Tam, 4-hydroxytamoxifen]
IC50 [1]: 7.16 ± 2.15 µM
IC50 [2]: 12 ± 4.5 µM

C[C@]12CC[C@@H]3c4ccc(O)cc4C[C@@H](CCCCCCCCC[S+]([O-])CCCC(F)(F)C(F)(F)F)[C@H]3[C@@H]1CC[C@@H]2O (stereo partly shown) [Fulvestrant]
patients with incomplete inhibition of [18F]fluoroestradiol uptake [3]: 38 % of patients

CC/C(=C(/c1ccc(/C=C/C(=O)O)cc1)c1ccc2[nH]ncc2c1)c1ccc(F)cc1Cl [GDC-0810]
Oral %F [4]: 61%
Clast ([4]; oral gavage, 10 mg/kg/day): 7 ng/mL
Clast ([4]; oral gavage, 30 mg/kg/day): 13 ng/mL
AUC(0-t) ([4]; oral gavage, 100 mg/kg/day): 94100 ng·h/mL
half-life ([4]; plasma): 2.6 h
Vd ([4]; plasma, intravenous): 1.2 L/kg
clearance ([4]; plasma, intravenous): 11 mL/min/kg
AUC(0-inf) ([4]; plasma, po): 8800 ng·h/mL
Cmax ([4]; plasma, po): 4400 ng/mL
AUC(0-t) ([4]; plasma, po, 10 mg/kg/day): 5500 ng·h/mL
Cmax ([4]; plasma, po, 10 mg/kg/day): 1640 ng/mL
Tmax ([4]; plasma, po, 10 mg/kg/day): 1 h
half-life ([4]; plasma, po, 10 mg/kg/day): 8 h
AUC(0-t) ([4]; plasma, po, 30 mg/kg/day): 21500 ng·h/mL
Cmax ([4]; plasma, po, 30 mg/kg/day): 5330 ng/mL
Tmax ([4]; plasma, po, 30 mg/kg/day): 1 h
half-life ([4]; plasma, po, 30 mg/kg/day): 4 h
AUC(0-t) ([4]; plasma, po, 100 mg/kg/day): 94100 ng·h/mL
Cmax ([4]; plasma, po, 100 mg/kg/day): 9310 ng/mL
Tmax ([4]; plasma, po, 100 mg/kg/day): 8 h
concentration at 24 h ([4]; plasma, po, 100 mg/kg/day): 216 ng/mL
half-life ([4]; plasma, po, 100 mg/kg/day): 3 h
